IC50 and EC50 data for 20 compounds are collected here from patent US7932262B2 (Novartis AG, priority 2006, dated 2011).

Read-outs that look alike come from different tables or passages of the source. Some results are limits rather than exact numbers.

Assay [1] addresses T1, PDK1 kinase (Homo sapiens, UniProt O15530).
T1 sequence (O15530 1-556): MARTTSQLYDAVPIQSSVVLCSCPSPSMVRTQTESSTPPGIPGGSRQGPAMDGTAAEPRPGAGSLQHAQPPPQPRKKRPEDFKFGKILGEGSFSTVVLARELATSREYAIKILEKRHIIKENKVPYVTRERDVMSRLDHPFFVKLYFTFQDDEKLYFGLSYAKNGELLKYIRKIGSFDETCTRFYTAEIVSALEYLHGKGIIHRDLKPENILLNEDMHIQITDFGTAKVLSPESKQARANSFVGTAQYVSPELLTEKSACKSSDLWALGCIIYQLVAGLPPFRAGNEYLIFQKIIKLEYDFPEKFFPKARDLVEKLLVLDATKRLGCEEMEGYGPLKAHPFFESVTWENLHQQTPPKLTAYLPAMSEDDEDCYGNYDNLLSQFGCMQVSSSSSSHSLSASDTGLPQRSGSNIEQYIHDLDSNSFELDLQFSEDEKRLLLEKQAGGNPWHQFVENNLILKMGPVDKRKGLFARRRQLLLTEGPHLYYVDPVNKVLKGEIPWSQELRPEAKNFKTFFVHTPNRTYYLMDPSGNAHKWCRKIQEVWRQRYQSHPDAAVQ
Put plainly: PDK1 Kinase Alpha Screen Assay. The format is biochemical. Particulars: read-out: PDK1 IC50. As to the method:
1. PDK1 Kinase Alpha Screen Assay
Reagents/Concentrations: The PDK1-4 peptide substrate, biotin-[…]-NH2, was purchased from the Tufts University Core Facility. The final concentration of PDK1-4 peptide substrate was 50 nM The ATP substrate (Adenosine-5′-triphosphate) was purchased from Roche Diagnostics. The final concentration of ATP substrate was 10 uM. Phospho-(Ser/Thr) PKA substrate antibody was purchased from Cell Signaling Technology. The final concentration of antibody was 0.3 mg/ml. The Alpha Screen Protein A detection kit containing donor and acceptor beads was purchased from PerkinElmer Life Sciences. The final concentration of both donor and acceptor beads was 25 μg/ml. Alpha Screen was used for detection. The biotinylated-PDK1-4 peptide was phosphorylated by PDK1 kinase using the ATP substrate. The biotinylated-PDK1-4 peptide substrate was bound to the streptavidin coated donor bead. The antibody was bound to the protein A coated acceptor bead. The antibody bound to the phosphorylated form of the biotinylated PDK-1 peptide substrate, bringing the donor and acceptor beads into close proximity. Laser irradiation of the donor bead at 680 nm generated a flow of short-lived singlet oxygen molecules. When the donor and acceptor beads were in close proximity, the reactive oxygen generated by the irradiation of the donor beads initiated a luminescence/fluorescence cascade in the acceptor beads. This process led to a highly amplified signal with output in the 530-620 nm range. Assays were carried out in 50 mM Tris, pH=7.5, 10 mM MgCl2, 0.1% Bovine Serum Albumin, 0.01% Tween-20, 2 mM Dithiolthreitol, 2.5% Dimethyl Sulfoxide. Reactions were stopped by adding 50 mM Tris, pH=7.5, 90 mM EDTA, 0.1% Bovine Serum Albumin, 0.01% Tween-20.
Procedure: To 10 μl of PDK1-4 peptide, 0.5 μl of test compound in dimethyl sulfoxide is added. PDK1 kinase and ATP are mixed. 10 μl of the PDK1 kinase/ATP mix is added to start the reaction. The reaction is allowed to proceed for 3-18 hours. The reactions are stopped by adding 10 μl of the EDTA-containing stop buffer. Beads are mixed with antibody. 25 μl of the bead/antibody mix is added to the stopped reactions. Plates are incubated at room temperature overnight to allow for detection development before being read. The assay is run is a 384-well format. […]

Assay [2] relates to PC-3 cells. Put plainly: Cell Proliferation Assay (Cell Titer Glo), PC-3 cell line. In kind it is cell-based. As to the method:
IV. Cell Proliferation Assay Protocol:
A2780, PC-3, or PC3MM cells were seeded at 1000 cells/well in 100 μL/well (10.000 cells/mL) growth media in 96-well plates. Cells were allowed to adhere to the bottom of plates for 3-5 hours in a 37° C. 5% CO2 incubator. Compounds were dissolved in DMSO and then transferred to the cell plates. The cells were incubated with the compounds for 3 days in a 37° C. 5% CO2 incubator. The growth medium containing the compounds was then removed from the cells and fresh medium was added, followed by 100 μL of Cell Titer Glo assay reagent (Promega). This mixture was shaken for 1 minute and then incubated without shaking for 10 minutes. Activity determinations for the compounds were made by detection on a Trilux Instrument.
V. Cell Proliferation Assay Protocol: PC-3 Cell Line
PC-3 cells were seeded at 1000 cells/well in 100 μL/well (10.000 cells/mL) along with growth media into black-walled, clear bottom 96-well plates. The cells were allowed to adhere to the bottom of the plate for 3-5 hours in a 37° C. 5% CO2 incubator.
Test compounds were diluted to 500× in DMSO. The DMSO solutions of six of the compounds were transferred to the cells in the 96 well round bottom plate, column 2, row B-F. A 1:3 serial dilution of each compound was carried out. The serial dilution comprised adding 20 μL of DMSO to the wells containing the compounds and doing a 1:3 dilution across the plate from columns 2-10. Column 11 contained only DMSO. The serial dilution was carried out using a BioMek 2000 protocol “CP Serial Dilution using 250 μL tips” or “Proliferation Compound” (if using 20 μL tips).
To a 96 deep well block, columns 2-11 rows B-F, was transferred 500 μL of growth medium. Using the FX protocol “HH_CellAssay—2 μL to 500 μL”, 2 μL of compound from each cell of the compound plate was transferred to the corresponding cell in the 96 deep well block containing 500 μL of growth medium. The instrument was programmed to dilute the compound in growth medium and then transfer 100 μL of that mixture to cell plates containing cells. The cell plates, to which test compounds had been added, were incubated for 3 days at 37° C. Following the incubation, the medium was removed and replaced with fresh medium. Cell Titer Glo (100 μL) was added to each well and the plate was shaken for 1 minute and then incubated without shaking for 10 minutes. The plates were then read using a Trilux instrument.
For orientation: Cellular ATP, detected with luciferase, serves as a proxy for viable cell number.

Where [3] appears, read: Homo sapiens, PC-3, 72 h, PC-3 cells, 3 days incubation, read-out: CP EC50 PC3.
[4] abbreviates: Homo sapiens, PC-3, Cell Proliferation Assay, PC3, read-out: CPEC50 PC3.

As usually defined, the IC50 is the concentration that gives 50% inhibition.

With “8-(6-(2-(pyrrolidin-1- yl)ethylamino)pyridin-3-yl)-N-(4- (trifluoromethoxy)phenyl)quinazoin- 2-amine [Compound 394]”, the IC50 in assay [1] (PDK1 Kinase Alpha Screen Assay) is less than 5 µM. The EC50 in assay [2] (Cell Proliferation Assay, PC3, read-out: CPEC50 PC3) is less than 5 µM.
Regarding `CCN1CCC(Oc2ccc3cnc(Nc4cc(OC)cc(OC)c4)nc3c2)CC1` [Compound 56, (3,5-Dimethoxy-phenyl)-[7-(1-ethyl-piperidin-4-yloxy)-quinazolin-2-yl]-amine], in assay [1], the half-inhibitory concentration (IC50) was less than 5 µM. In addition, the EC50 in assay [2] (setting [3]) is less than 5 µM.
As to `CC(C)N1CCC(Oc2ccc3cnc(Nc4ccc(Cl)cc4)nc3c2)CC1` [Compound 57, (4-Chloro-phenyl)-[7-(1-isopropyl-piperidin-4-yloxy)-quinazolin-2-yl]-amine], the IC50 in assay [1] is less than 5 µM. Besides, the EC50 in assay [2] (setting [3]) was less than 5 µM.
Consider `CC(C)N1CCC(Oc2ccc3cnc(Nc4ccc(F)cc4)nc3c2)CC1` [Compound 60, (4-Fluoro-phenyl)-[7-(1-isopropyl-piperidin-4-yloxy)-quinazolin-2-yl]-amine], for which the IC50 in assay [1] is less than 5 µM. Besides, the EC50 in assay [2] (setting [3]) is 5 to 10 µM.
With `CC(C)N1CCC(Oc2ccc3cnc(Nc4ccc(N)c(Cl)c4)nc3c2)CC1` [Compound 62, 2-Chloro-N*4*-[7-(1-isopropyl-piperidin-4-yloxy)-quinazolin-2-yl] benzene-1,4-diamine], the IC50 in assay [1] was less than 5 µM. Moreover, in assay [2] (setting [3]), the EC50 lay within 5 to 10 µM.
On to `Nc1cc(C(F)(F)F)c(-c2ccc3cnc(Nc4ccc(S(N)(=O)=O)cc4)nc3c2OC2CCNCC2)cn1` [Compound 69, 4-[7-(6-Amino-4-trifluoromethyl-pyridin-3-yl)-8-(piperidin-4-yloxy)-quinazolin-2-ylamino]-benzenesulfonamide], for which the IC50 in assay [1] was less than 5 µM. The EC50 in assay [2] (setting [3]) was 5 to 10 µM.
The matching figures for `CC(C)N1CCC(Oc2cccc3cnc(Nc4ccc(CC(N)=O)cc4)nc23)CC1` [Compound 74, 2-{4-[8-(1-Isopropyl-piperidin-4-yloxy)-quinazolin-2-ylamino]-phenyl}-acetamide]: less than 5 µM and less than 5 µM.
The corresponding values for `CC(C)N1CCC(Oc2cccc3cnc(Nc4ccc(NC(=O)N5CCCC5)cc4)nc23)CC1` [Compound 75, Pyrrolidine-1-carboxylic acid {4-[8-(1-isopropyl-piperidin-4-yloxy)-quinazolin-2-ylamino]-phenyl}-amide] are less than 5 µM and less than 5 µM.
The matching figures for `CC(C)N1CCC(Oc2cccc3cnc(Nc4cccc(CC(N)=O)c4)nc23)CC1` [Compound 76, 2-{3-[8-(1-Isopropyl-piperidin-4-yloxy)-quinazolin-2-ylamino]-phenyl}-acetamide]: less than 5 µM and less than 5 µM.
On to `CNC(=O)Cc1cccc(NC(=O)Cc2cccc(Nc3ncc4cccc(OC5CCN(C(C)C)CC5)c4n3)c2)c1` [Compound 78, 2-{3-[8-(1-Isopropyl-piperidin-4-yloxy)-quinazolin-2-ylamino]-phenyl}-N-(3-methylcarbamoylmethyl-phenyl)-acetamide], for which the IC50 in assay [1] was less than 5 µM. Besides, in assay [2] (setting [3]), the EC50 was less than 5 µM.
As for `CC(C)NC(=O)Cc1cccc(Nc2ncc3cccc(OC4CCN(C(C)C)CC4)c3n2)c1` [Compound 79, N-Isopropyl-2-{3-[8-(1-isopropyl-piperidin-4-yloxy)-quinazolin-2-ylamino]-phenyl}-acetamide], in assay [1], the IC50 was less than 5 µM. For the same compound, in assay [2] (setting [3]), the EC50 is less than 5 µM.
In the case of `CC(C)N1CCC(Oc2cccc3cnc(Nc4cccc(N5CCOCC5)c4)nc23)CC1` [Compound 80, [8-(1-Isopropyl-piperidin-4-yloxy)-quinazolin-2-yl]-(3-morpholin-4-yl-phenyl)-amine], the IC50 in assay [1] is less than 5 µM. In addition, the EC50 in assay [2] (setting [3]) lay within 5 to 10 µM.
On to `CNS(=O)(=O)Cc1ccc(Nc2ncc3cccc(OC4CCN(C(C)C)CC4)c3n2)cc1` [Compound 82, C-{4-[8-(1-Isopropyl-piperidin-4-yloxy)-quinazolin-2-ylamino]-phenyl}-N-methyl-methanesulfonamide], for which, in assay [1], the half-inhibitory concentration (IC50) was less than 5 µM. In addition, in assay [2] (setting [3]), the EC50 is less than 5 µM.
As for `CC(C)N1CCC(Oc2cccc3cnc(Nc4ccc(F)cc4)nc23)CC1` [Compound 83, (4-Fluoro-phenyl)-[8-(1-isopropyl-piperidin-4-yloxy)-quinazolin-2-yl]-amine], the IC50 in assay [1] was less than 5 µM. Also, the EC50 in assay [2] (setting [3]) fell in the range of 5 to 10 µM.
The corresponding values for `CC(C)N1CCC(Oc2cccc3cnc(Nc4ccc(Cl)cc4)nc23)CC1` [Compound 84] are less than 5 µM and less than 5 µM.
On to `CC(C)N1CCC(Oc2cccc3cnc(Nc4ccc(C(F)(F)F)cc4)nc23)CC1` [Compound 85, [8-(1-Isopropyl-piperidin-4-yloxy)-quinazolin-2-yl]-(4-trifluoromethyl-phenyl)-amine], for which the IC50 in assay [1] is less than 5 µM. Besides, the EC50 in assay [2] (setting [3]) is less than 5 µM.
As to `CC(C)N1CCC(Oc2ccc3cnc(Nc4ccc(C(F)(F)F)cc4)nc3c2)CC1` [Compound 318, 7-(1-isopropylpiperidin-4-yloxy)-N-(4-(trifluoromethyl)phenyl)quinazolin-2-amine], the IC50 in assay [1] (PDK1 Kinase Alpha Screen Assay) is less than 5 µM. Moreover, the EC50 in assay [2] (setting [4]) is less than 5 µM.
Turning to `CC(C)N1CCC(Oc2ccc3cnc(Nc4ccc(OC(F)(F)F)cc4)nc3c2)CC1` [Compound 319, 7-(1-isopropylpiperidin-4-yloxy)-N-(4-(trifluoromethoxy)phenyl)quinazolin-2-amine], in assay [1] (PDK1 Kinase Alpha Screen Assay), the half-inhibitory concentration (IC50) was less than 5 µM. Moreover, the EC50 in assay [2] (setting [4]) was less than 5 µM.
On to `CC(=O)Nc1ccc(Nc2ncc3ccc(OC4CCN(C(C)C)CC4)cc3n2)cc1Cl` [Compound 320, N-(2-chloro-4-(7-(1-isopropylpiperidin-4-yloxy)quinazolin-2-ylamino)phenyl)acetamide], for which, in assay [1] (PDK1 Kinase Alpha Screen Assay), the IC50 is less than 5 µM. Besides, the EC50 in assay [2] (setting [4]) is less than 5 µM.
On to `COc1cc(S(N)(=O)=O)c(OC)cc1Nc1ncc2ccc(OC3CCNCC3)cc2n1` [Compound 321, 2,5-dimethoxy-4-(7-(piperidin-4-yloxy)quinazolin-2-ylamino)benzenesulfonamide], for which, in assay [1] (PDK1 Kinase Alpha Screen Assay), the 50% inhibitory concentration (IC50) was less than 5 µM. In addition, the EC50 in assay [2] (setting [4]) fell in the range of 5 to 10 µM.
